The record followed here is the supplement of paper PMC4862054.

Assay [1] relates to CAL-148. As to the kind of experiment: drug sensitivity score (DSS), CellTox Green (DSS (AUC-based score)); higher = stronger drug effect (viability inhibition or cytotoxicity); extreme values may be limits of the assay. The settings on record: incubation time: 72 h. In short, it runs like this: (§1)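 Using 20 µl of cell suspension per well, breast cancer cell lines were seeded into 384-well plates pre-loaded with compound at 5 concentrations in 10-fold steps across a compound-specific 10,000-fold range. Incubation lasted 72 h, after which CellTox Green fluorescence at 485/520 nm and then CellTiter-Glo luminescence, following 10 min at room temperature, were recorded. Each plate was normalised to 0.1 % DMSO and a positive kill control before the drug sensitivity score was derived from the area under the fitted dose-response curve.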

Assay [2] relates to MFM-223. Described as above. The settings on record: incubation time: 72 h. In short, it runs like this:
as §1

Assay [3] concerns MDA-MB-231. The settings on record: 72 h. In short, it runs like this:
(§2)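 Viability of breast cancer cell lines was measured with CellTiter-Blue after 72 h of incubation on compound-loaded 384-well plates. Cells were seeded in 20 µl onto compound dissolved in 5 µl medium, and 2.5 µl reagent was added for 2 h at 37 °C before reading at 560/590 nm. EC50 was fitted from percent-inhibition dose-response data censored at the highest concentration, normalised per plate to vehicle and a positive kill control, with zero drug sensitivity score rows dropped.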

Assay [4] deals with BT-549. The settings on record: 72 h. The procedure, abridged:
as §2

Assay [5] deals with HCC1937. The settings on record: 72 h. In short, it runs like this:
as §2

Assay [6] has as its system HCC1143. The settings on record: 72 h. The procedure, abridged: as §2
Assay [7] deals with MDA-MB-436. The settings on record: 72 h. In short, it runs like this:
as §2

Assay [8] deals with MFM-223. To be noted: 72 h. The procedure, abridged: as §2
Assay [9] concerns MDA-MB-468. The settings on record: 72 h. The procedure, abridged: as §2
Assay [10] relates to HCC1599. The settings on record: 72 h. The procedure, abridged:
as §2

Assay [11] relates to SK-BR-3. The settings on record: 72 h. The procedure, abridged:
as §2

For assay [12], the system named is CAL-120. To be noted: 72 h. In short, it runs like this:
as §2

In assay [13] the test system is Hs578T. To be noted: 72 h. In short, it runs like this:
as §2

SMILES strings stand for the structures.

Turning to `CNC(=O)c1ccccc1Sc1ccc2c(/C=C/c3ccccn3)n[nH]c2c1` [Axitinib], the drug sensitivity score in assay [1] is 2.44; in assay [2] it was 0. The “EC50, CellTiter-Blue viability” value in [3] is 1170 nM; in assay [4], 2180 nM; in [5], 1370 nM; in assay [6], 2570 nM; in assay [7], 91.7 nM; in [8], 163 nM. Also, the “EC50, CellTiter-Blue viability” value in assay [9] came out at 6660 nM.

Consider `C=CCn1c(=O)c2cnc(Nc3ccc(N4CCN(C)CC4)cc3)nc2n1-c1cccc(C(C)(C)O)n1` [MK1775], for which the drug sensitivity score in assay [1] was 21.1; in assay [2] it was 5.91. The “EC50, CellTiter-Blue viability” value in assay [3] was 303 nM; in [4], 569 nM; in assay [10] it was 632 nM; in [5] it was 190 nM; in assay [6], 829 nM; in assay [11], 120 nM. For the same compound, the “EC50, CellTiter-Blue viability” value in [12] came out at 301 nM; in assay [7], 350 nM; in assay [13], 349 nM; in assay [8], 182 nM; in [9] it was 797 nM.

Take `CC(=O)[C@]1(O)Cc2c(O)c3c(c(O)c2[C@@H](O[C@H]2C[C@H](N)[C@H](O)[C@H](C)O2)C1)C(=O)c1ccccc1C3=O` [Idarubicin]: the drug sensitivity score was determined as 12.7 in assay [1] and 1.56 in assay [2]. Also, the “EC50, CellTiter-Blue viability” value in assay [3] is 79.6 nM; in assay [4] it was 91.5 nM; in assay [10], 945 nM; in [5], 5.47 nM; in [6], 91.5 nM; in assay [11] it was 24.5 nM. For the same compound, the “EC50, CellTiter-Blue viability” value was found to be 42.2 nM in assay [12]; 96.8 nM in [7]; 93.8 nM in assay [13]; 263 nM in assay [8]; 53 nM in assay [9].

On to `COc1cc(Nc2c(C#N)cnc3cc(OCCCN4CCN(C)CC4)c(OC)cc23)c(Cl)cc1Cl` [Bosutinib], for which the drug sensitivity score in [1] turned out to be 2.51; in assay [2] it was 0. Also, the “EC50, CellTiter-Blue viability” value in assay [3] was 2410 nM; in assay [4] it was 3360 nM; in [10] it was 2100 nM; in [5] it was 2670 nM; in [6], 1440 nM; in assay [11], 2130 nM. The “EC50, CellTiter-Blue viability” value in [12] worked out at 1960 nM; in assay [7], 3110 nM; in assay [13] it was 4520 nM; in [8] it was 5250 nM; in assay [9] it was 3180 nM.

As to `Cn1cc(C2=C(c3cn(C4CCN(Cc5ccccn5)CC4)c4ccccc34)C(=O)NC2=O)c2ccccc21` [Enzastaurin], the drug sensitivity score in assay [1] and in [2] was 0 each time. The “EC50, CellTiter-Blue viability” value in assay [4] came out at 857 nM; in assay [5], 5370 nM; in [6], 418 nM; in [11], 667 nM; in assay [7], 129 nM; in assay [13], 873 nM. The “EC50, CellTiter-Blue viability” value in assay [8] is 642 nM.

Consider `Nc1ccn([C@@H]2O[C@H](CO)[C@@H](O)C2(F)F)c(=O)n1` [Gemcitabine], for which the drug sensitivity score in [1] is 11.2; in [2], 0. In addition, the “EC50, CellTiter-Blue viability” value in assay [3] came to 4.41 nM; in [4] it was 19.1 nM; in assay [10], 233 nM; in [5], 20.5 nM; in assay [6] it was 9.03 nM; in [11], 11.8 nM. The “EC50, CellTiter-Blue viability” value in assay [12] was 9.03 nM; in [7], 22.2 nM; in assay [13], 9.36 nM; in [8], 673 nM; in assay [9], 13.5 nM.

Turning to `CC[C@H](CO)Nc1nc(NCc2ccccc2)c2ncn(C(C)C)c2n1` [Roscovitine], the “EC50, CellTiter-Blue viability” value was 684 nM in [4]; 2290 nM in assay [10]; greater than 10000 nM in [6]; 2500 nM in assay [7]; 7660 nM in assay [13].

`CO[C@@H]1[C@H](N(C)C(=O)c2ccccc2)C[C@H]2O[C@]1(C)n1c3ccccc3c3c4c(c5c6ccccc6n2c5c31)C(=O)NC4` [Midostaurin]: the drug sensitivity score in assay [2] was 0. The “EC50, CellTiter-Blue viability” value in assay [3] turned out to be 477 nM; in [4] it was 1490 nM; in [10] it was 617 nM; in [5], 237 nM; in assay [6], 822 nM; in assay [11], 1240 nM. Also, the “EC50, CellTiter-Blue viability” value was 591 nM in assay [12]; 204 nM in assay [7]; 299 nM in [13]; 708 nM in assay [8]; 490 nM in assay [9].

For `C/C(=C\c1csc(C)n1)[C@@H]1C[C@@H]2O[C@]2(C)CCC[C@H](C)[C@H](O)[C@@H](C)C(=O)C(C)(C)[C@@H](O)CC(=O)N1` [Ixabepilone], the drug sensitivity score in assay [1] and in assay [2] was 0 each time. In addition, the “EC50, CellTiter-Blue viability” value in assay [3] is 84.3 nM; in assay [4] it was 510 nM; in [5] it was 371 nM; in assay [6], 371 nM; in assay [11] it was 274 nM; in assay [12], 333 nM. Further, the “EC50, CellTiter-Blue viability” value came out at 173 nM in assay [7], 625 nM in assay [13], 322 nM in assay [8] and 834 nM in [9].

Take `COc1ccc(S(=O)(=O)Nc2cccnc2Nc2ccc(O)cc2)cc1` [ABT-751]: the values for the drug sensitivity score in [1] and in assay [2] were 0 and 4.05, respectively. For the same compound, the “EC50, CellTiter-Blue viability” value in assay [3] was 376 nM; in assay [4], 2470 nM; in assay [10], 1590 nM; in assay [5], 349 nM; in assay [6] it was 1780 nM; in assay [11], 156 nM. The “EC50, CellTiter-Blue viability” value in assay [12] is 295 nM; in [7] it was 776 nM; in assay [13], 218 nM; in assay [8], 2130 nM; in assay [9] it was 748 nM.

With `CO[C@@]12[C@H](COC(N)=O)C3=C(C(=O)C(C)=C(N)C3=O)N1C[C@@H]1N[C@@H]12` [Mitomycin C], the values for the drug sensitivity score in [1] and in [2] were 1.72 and 1.79, respectively. Further, the “EC50, CellTiter-Blue viability” value in assay [3] came out at 1080 nM; in [4], 2970 nM; in assay [10], 1370 nM; in assay [5], 360 nM; in assay [6], 2380 nM; in assay [11], 1490 nM. The “EC50, CellTiter-Blue viability” value in assay [12] came out at 7160 nM; in assay [7] it was 2680 nM; in [13], 3560 nM; in assay [8] it was 3790 nM; in assay [9] it was 2270 nM.

On to `CCNC(=O)c1noc(-c2cc(C(C)C)c(O)cc2O)c1-c1ccc(CN2CCOCC2)cc1` [NVP-AUY922], for which the drug sensitivity score in [1] came to 12.7; in [2], 0. The “EC50, CellTiter-Blue viability” value came to 6.7 nM in [3]; 5.61 nM in assay [4]; 45.2 nM in assay [10]; 0.76 nM in [5]; 32.2 nM in assay [6]; 6.13 nM in assay [11]. Further, the “EC50, CellTiter-Blue viability” value in assay [12] worked out at 7.81 nM; in assay [7], 10.2 nM; in assay [13], 3.74 nM; in assay [8], 5.15 nM; in assay [9] it was 7.89 nM.
